Source: patent publication US7348425B2, “Inhibitors of HCV replication” (Bristol-Myers Squibb Company, priority 2004, dated 2008)
Read-outs that look alike come from different tables or passages of the source.

How the values were obtained:
[1] = biological target: T1, HCV NS5B RdRp genotype 1b (Hepatitis C virus genotype 1b, UniProt Q9WMX2); experiment: Standard HCV NS5B RdRp enzyme assay; assay type: biochemical; settings: standard method
T1 construct: The protein was expressed with an 18 amino acid C-terminal truncation to enhance the solubility; made in house; host or cells: E. coli BL21 (DE3), pET21a
Method: HCVNS5B RdRp cloning, expression, and purification. The cDNA encoding the NS5B protein of HCV, genotype 1b, was cloned into the pET21a expression vector. The protein was expressed with an 18 amino acid C-terminal truncation to enhance the solubility. The E. coli competent cell line BL21 (DE3) was used for expression of the protein. Cultures were grown at 37° C. for ˜4 hours until the cultures reached an optical density of 2.0 at 600 nm. The cultures were cooled to 20° C. and induced with 1 mM IPTG. Fresh ampicillin was added to a final concentration of 50 μg/ml and the cells were grown overnight at 20° C.
Cell pellets (3 L) were lysed for purification to yield 15-24 mgs of purified NS5B. The lysis buffer consisted of 20 mM Tris-HCl, pH 7.4, 500 mM NaCl, 0.5% triton X-100, 1 mM DTT, 1 mM EDTA, 20% glycerol, 0.5 mg/ml lysozyme, 10 mM MgCl2, 15 ug/ml deoxyribonuclease I, and Complete TM protease inhibitor tablets (Roche). After addition of the lysis buffer, frozen cell pellets were resuspended using a tissue homogenizer. To reduce the viscosity of the sample, aliquots of the lysate were sonicated on ice using a microtip attached to a Branson sonicator. The sonicated lysate was centrifuged at 100,000×g for 1 hr at 4° C. and filtered through a 0.2 μm filter unit (Corning).
The protein was purified using three sequential chromatography steps: Heparin sepharose CL-6B, polyU sepharose 4B, and Hitrap SP sepharose (Pharmacia). The chromatography buffers were identical to the lysis buffer but contained no lysozyme, deoxyribonuclease I, MgCl2 or protease inhibitor and the NaCl concentration of the buffer was adjusted according to the requirements for charging the protein onto the column. Each column was eluted with a NaCl gradient which varied in length from 5-50 column volumes depending on the column type. After the final chromatography step, the resulting purity of the enzyme is >90% based on SDS-PAGE analysis. The enzyme was aliquoted and stored at −80° C.
Standard HCV NS5B RdRp enzyme assay. HCV RdRp genotype Ib assays were run in a final volume of 60 μl in 96 well plates (Costar 3912). The assay buffer is composed of 20 mM Hepes, pH 7.5, 2.5 mM KCl, 2.5 mM MgCl2, 1 mM DTT, 1.6 U RNAse inhibitor (Promega N2515), 0.1 mg/ml BSA (Promega R3961), and 2% glycerol. All compounds were serially diluted (3-fold) in DMSO and diluted further in water such that the final concentration of DMSO in the assay was 2%. HCV RdRp genotype 1b enzyme was used at a final concentration of 28 nM. A polyA template was used at 6 nM, and a biotinylated oligo-dT12 primer was used at 180 nM final concentration. Template was obtained commercially (Amersham 27-4110). Biotinylated primer was prepared by Sigma Genosys. ^3H-UTP was used at 0.6 μCi (0.29 μM total UTP). Reactions were initiated by the addition of enzyme, incubated at 30° C. for 60 min, and stopped by adding 25 μl of 50 mM EDTA containing SPA beads (4 μg/μl, Amersham RPNQ 0007). Plates were read on a Packard Top Count NXT after >1 hr incubation at room temperature.
The IC50 values for compounds were determined using seven different [I]. IC50 values were calculated from the inhibition using the formula y=A+((B−A)/(1+((C/x)^D))). FRET Assay Preparation. To perform the HCV FRET screening assay, 96-well cell culture plates were used. The FRET peptide (Anaspec, Inc.) (Taliani et al., Anal. Biochem. 240:60-67 (1996), hereby incorporated by reference in its entirety) contains a fluorescence donor, EDANS, near one end of the peptide and an acceptor, DABCYL, near the other end. The fluorescence of the peptide is quenched by […] resonance energy transfer (RET) between the donor and the acceptor, but as the NS3 protease cleaves the peptide the products are released from RET quenching and the fluorescence of the donor becomes apparent. […]

HCV replicon = HCV replicon luciferase assay; assay type: cell-based, Hepatitis C virus; settings: Hepatitis C virus
Method: To prepare plates, HCV replicon cells, with or without a Renilla luciferase reporter gene, were trypsinized and placed into each well of a 96-well plate with titrated test compounds added in columns 3 through 12; columns 1 and 2 contained a control compound (HCV protease inhibitor), and the bottom row contained cells without compound. The plates were then placed in a CO2 incubator at 37 degrees C.
Assays. Subsequent to addition of the test compounds described above (FRET Assay Preparation), at various times the plate was removed and Alamar blue solution (Trek Diagnostics, #00-100) was added per well as a measure of cellular toxicity. After reading in a Cytoflour 4000 instrument (PE Biosystems), plates were rinsed with PBS and then used for FRET assay by the addition of 30 ul of the FRET peptide assay reagent described above (FRET Assay Preparation) per well. The plate was then placed into the Cytoflour 4000 instrument which had been set to 340 excite/490 emission, automatic mode for 20 cycles and the plate read in a kinetic mode. Typically, the signal to noise using an endpoint analysis after the reads was at least three-fold. Alternatively, after Alamar blue reading, plates were rinsed with PBS, 50 ul of DMEM (high glucose) without phenol red was added and plates were then used for luciferase assay using the Promega Dual-Glo Luciferase Assay System.
Compound analysis was determined by quantification of the relative HCV replicon inhibition and the relative cytotoxicity values. To calculate cytoxicity values, the average Alamar Blue fluorescence signals from the control wells were set as 100% non-toxic. The individual signals in each of the compound test wells were then divided by the average control signal and multiplied by 100% to determine […]. To calculate the HCV replicon inhibition values, an average background value was obtained from the two wells containing the highest amount of HCV protease inhibitor at the end of the assay period. These numbers were similar to those obtained from naïve Huh-7 cells.
The background numbers were then subtracted from the average signal obtained from the control wells and this number was used as 100% activity. The individual signals in each of the compound test wells were then divided by the averaged control values after background subtraction and multiplied by 100% to determine percent activity. EC50 values for a protease inhibitor titration were calculated as the concentration which caused a 50% reduction in FRET or luciferase activity. The two numbers generated for the compound plate, percent cytoxicity and percent activity were used to determine compounds of interest for further analysis.

[2] = luciferase method, read-out: EC50

T1 sequence (Q9WMX2 2420-2992): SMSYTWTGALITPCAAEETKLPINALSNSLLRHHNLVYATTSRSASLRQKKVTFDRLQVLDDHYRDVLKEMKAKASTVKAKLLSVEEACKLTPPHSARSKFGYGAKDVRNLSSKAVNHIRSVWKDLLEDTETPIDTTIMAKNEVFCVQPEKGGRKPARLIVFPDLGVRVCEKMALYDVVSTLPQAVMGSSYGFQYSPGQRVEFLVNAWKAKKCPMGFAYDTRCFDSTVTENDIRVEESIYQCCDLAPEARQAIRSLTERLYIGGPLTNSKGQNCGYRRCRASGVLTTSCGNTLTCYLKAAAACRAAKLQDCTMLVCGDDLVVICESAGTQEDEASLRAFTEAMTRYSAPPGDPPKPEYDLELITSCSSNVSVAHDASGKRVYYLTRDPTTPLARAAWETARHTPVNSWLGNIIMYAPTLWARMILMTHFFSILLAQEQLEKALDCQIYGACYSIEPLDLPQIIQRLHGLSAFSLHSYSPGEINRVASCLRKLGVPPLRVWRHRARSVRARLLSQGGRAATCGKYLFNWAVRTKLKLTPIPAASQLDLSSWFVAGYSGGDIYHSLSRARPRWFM

Structure (SMILES) | IC50 [1] | EC50 (HCV replicon; [2]) | EC50 (HCV replicon)
O=C(O)c1ccc2c(C3CCCCC3)c3n(c2c1)CC=Cc1cc(OCc2ccccc2)ccc1-3 | > 1000 nM | 100 to 1000 nM | –
O=C(O)c1ccc2c(C3CCCCC3)c3n(c2c1)CCCc1occc1-3 | > 1000 nM | 1000 to 10000 nM | –
CC(C)(C)OC(=O)N1/C=C\CCn2c(c(C3CCCCC3)c3ccc(C(=O)O)cc32)-c2ccccc21 | > 1000 nM | 1000 to 10000 nM | –
O=C(O)c1ccc2c(C3CCCCC3)c3n(c2c1)CCCCNc1ccccc1-3 | > 1000 nM | 100 to 1000 nM | –
O=C(O)c1ccc2c(C3CCCCC3)c3n(c2c1)CCCc1cc(O)ccc1-3 | 100 to 1000 nM | 100 to 1000 nM | –
O=C(O)c1ccc2c(C3CCCCC3)c3n(c2c1)C(O)c1ccccc1-3 (stereo not drawn) | > 1000 nM | > 10000 nM | –
COC1c2ccccc2-c2c(C3CCCCC3)c3ccc(C(=O)O)cc3n21 (stereo not drawn) | > 1000 nM | > 10000 nM | –
O=C(O)c1ccc2c(C3CCCCC3)c3c4ccccc4cc(C(=O)O)n3c2c1 | > 1000 nM | > 10000 nM | –
O=C(O)C1=Cc2ccccc2-c2c(C3CCCCC3)c3ccc(C(=O)O)cc3n2C1 | 100 to 1000 nM | > 10000 nM | –
CN(C)S(=O)(=O)NC(=O)c1ccc2c(C3CCCCC3)c3n(c2c1)CCCc1ccccc1-3 | 100 to 1000 nM | 100 to 1000 nM | –
Cn1cnc(S(=O)(=O)NC(=O)c2ccc3c(C4CCCCC4)c4n(c3c2)CCCc2ccccc2-4)c1 | > 1000 nM | 1000 to 10000 nM | –
O=C1Cn2c(c(C3CCCCC3)c3ccc(C(=O)NS(=O)(=O)C4CC4)cc32)-c2ccccc2N1 | 100 to 1000 nM | 100 to 1000 nM | –
CCOC(=O)/C=C/c1ccc(NC(=O)C2(NC(=O)c3ccc4c(C5CCCCC5)c5n(c4c3)CCCc3ncccc3-5)CCCC2)cc1 | > 1000 nM | < 100 nM | –
O=C(O)/C=C/c1ccc(NC(=O)C2(NC(=O)c3ccc4c(C5CCCCC5)c5n(c4c3)CCCc3ncccc3-5)CCCC2)cc1 | 100 to 1000 nM | < 100 nM | –
COC(=O)/C=C/c1ccc(NC(=O)C2(NC(=O)c3ccc4c(C5CCCCC5)c5n(c4c3)CCOc3cccnc3-5)CCCC2)cc1 | > 1000 nM | 100 to 1000 nM | –
O=C(O)/C=C/c1ccc(NC(=O)C2(NC(=O)c3ccc4c(C5CCCCC5)c5n(c4c3)CCOc3cccnc3-5)CCCC2)cc1 | 100 to 1000 nM | < 100 nM | –
CC(C)(C)OC(=O)/C=C/c1ccc(NC(=O)C2(NC(=O)c3ccc4c(C5CCCCC5)c5n(c4c3)CC(=O)Nc3cccnc3-5)CCCC2)cc1 | > 1000 nM | 100 to 1000 nM | –
COC(=O)/C=C/c1ccc(NC(=O)C2(NC(=O)c3ccc4c(C5CCCCC5)c5n(c4c3)CCOc3ccccc3-5)CCCC2)cc1 | > 1000 nM | – | –
O=C(O)/C=C/c1ccc(NC(=O)C2(NC(=O)c3ccc4c(C5CCCCC5)c5n(c4c3)CCOc3ccccc3-5)CCCC2)cc1 | 100 to 1000 nM | < 100 nM | –

Structure (SMILES) | IC50 [1] | EC50 (HCV replicon; [2]) | EC50 (HCV replicon)
O=C(O)/C=C/c1ccc(NC(=O)C2(NC(=O)c3ccc4c(C5CCCCC5)c5n(c4c3)CC=Cc3ccccc3-5)CCCC2)cc1 | 100 to 1000 nM | < 100 nM | –
O=C(O)/C=C/c1ccc(NC(=O)C2(NC(=O)c3ccc4c(C5CCCCC5)c5n(c4c3)CCCCNc3ccccc3-5)CCCC2)cc1 | > 1000 nM | < 100 nM | –
O=C(O)/C=C/c1ccc(NC(=O)C2(NC(=O)c3ccc4c(C5CCCCC5)c5n(c4c3)CC(=O)Nc3cccnc3-5)CCCC2)cc1 | 100 to 1000 nM | < 100 nM | –
NC(=O)C1Cc2ccccc2-c2c(C3CCCCC3)c3ccc(C(=O)O)cc3n2C1 (stereo not drawn) | 100 to 1000 nM | 100 to 1000 nM | –
CNC(=O)C1Cc2ccccc2-c2c(C3CCCCC3)c3ccc(C(=O)O)cc3n2C1 (stereo not drawn) | 100 to 1000 nM | 100 to 1000 nM | –
O=C(O)c1ccc2c(C3CCCCC3)c3n(c2c1)CC(C(=O)N1CCN(c2ccncc2)CC1)Cc1ccccc1-3 (stereo not drawn) | 100 to 1000 nM | 100 to 1000 nM | –
COC(=O)c1ccc2c(C3CCCCC3)c3n(c2c1)CC(C(=O)N1CCN(c2ccncc2)CC1)Cc1ccccc1-3 (stereo not drawn) | > 1000 nM | 100 to 1000 nM | –
O=C(O)c1ccc2c(C3CCCCC3)c3n(c2c1)CC(C(=O)N1CCC(O)CC1)Cc1ccccc1-3 (stereo not drawn) | 100 to 1000 nM | 100 to 1000 nM | –
O=C(O)c1ccc2c(C3CCCCC3)c3n(c2c1)CC(C(=O)N1CCOCC1)=Cc1ccccc1-3 | 100 to 1000 nM | – | 100 to 1000 nM
COC(=O)c1ccc2c(C3CCCCC3)c3n(c2c1)CC(C(=O)N1CCOCC1)=Cc1ccccc1-3 | > 1000 nM | 1000 to 10000 nM | –
O=C(O)c1ccc2c(C3CCCCC3)c3n(c2c1)CC(C(=O)N1CCN(c2ccncc2)CC1)=Cc1ccccc1-3 | 100 to 1000 nM | 100 to 1000 nM | –
COC(=O)c1ccc2c(C3CCCCC3)c3n(c2c1)CC(C(=O)N1CCN(c2ccncc2)CC1)=Cc1ccccc1-3 | > 1000 nM | 1000 to 10000 nM | –
O=C(O)/C=C/c1ccc(NC(=O)C2(NC(=O)c3ccc4c(C5CCCCC5)c5n(c4c3)CC(C(=O)N3CCOCC3)Cc3ccccc3-5)CCCC2)cc1 (stereo not drawn) | 100 to 1000 nM | < 100 nM | –
CN(C)S(=O)(=O)NC(=O)c1ccc2c(C3CCCCC3)c3n(c2c1)CC(C(=O)N1CCN(c2ccncc2)CC1)Cc1ccccc1-3 (stereo not drawn) | 100 to 1000 nM | < 100 nM | –
CN(C)S(=O)(=O)NC(=O)c1ccc2c(C3CCCCC3)c3n(c2c1)CC(C(=O)N1CCOCC1)Cc1ccccc1-3 (stereo not drawn) | 100 to 1000 nM | < 100 nM | –
CN1CCN(C(=O)C2Cc3ccccc3-c3c(C4CCCCC4)c4ccc(C(=O)NS(=O)(=O)N(C)C)cc4n3C2)CC1 (stereo not drawn) | 100 to 1000 nM | 100 to 1000 nM | –
CN(C)S(=O)(=O)NC(=O)c1ccc2c(C3CCCCC3)c3n(c2c1)CC(C(=O)N1CCC(N2CCCC2)CC1)Cc1ccccc1-3 (stereo not drawn) | 100 to 1000 nM | < 100 nM | –
CN(C)S(=O)(=O)NC(=O)c1ccc2c(C3CCCCC3)c3n(c2c1)CC(C(=O)N1CCCC(O)C1)Cc1ccccc1-3 (stereo not drawn) | 100 to 1000 nM | 100 to 1000 nM | –
CN(C)S(=O)(=O)NC(=O)c1ccc2c(C3CCCCC3)c3n(c2c1)CC(C(=O)N1CCOCC1)=Cc1ccccc1-3 | 100 to 1000 nM | – | < 100 nM
